From publication PMC11536976 (RSC Advances, 2024) come the findings set out here.

Common to all, as to assay type: cell-based, human
For data set [1], the system named is A549 cells. Description: MTT cytotoxicity assay, A549. Particulars: for IC50: read-out: IC50 A549; for SI A549: selectivity index = IC50 in MRC-5 / IC50 in A549. In general terms: Tetrazolium dyes change colour on reduction, which living cells bring about.
For another data set, the system named is SW480 cells. Description: MTT cytotoxicity assay, SW480. Conditions: for IC50: Homo sapiens, SW480, 72 h, read-out: IC50 SW480; for SI SW480: selectivity index = IC50 in MRC-5 / IC50 in SW480.
The test system of data set [2] is A549 cells. The experiment in a line: Apoptosis assay, Annexin V-FITC/PI flow cytometry. Particulars: 24 h; for early apoptotic cells (Q3, annexin+/PI-): control 1.8%; for late apoptotic cells (Q2, annexin+/PI+): control 2.4%. On the technique in general: Flow cytometry measures light scatter and fluorescence of single cells or particles in a stream.
Data set [3] concerns A549 cells. Description: Cell cycle analysis by flow cytometry. Particulars: 24 h; for cell population in S phase: control 18.89%; for cell population in G0/G1 phase: control 67.87%.

Read-outs that look alike come from different tables or passages of the source.

On to `N.N.[Cl][Pt][Cl]` [Cisplatin, reference compound], for which the IC50 (usually the point on the concentration scale where inhibition reaches its midpoint) in the data set on A549 cells [1] (MTT, 72 h, mean ± SD of 3–4 independent replicates) was found to be 5.77 ± 1.6 µM.

In the case of `CCCCNC(=O)c1ccc2nc(-c3cc(OC)c(OC)c(OC)c3)[nH]c2c1` [Compound 5a, N-Butyl-2-(3,4,5-trimethoxyphenyl)-1H-benzo[d]imidazole-6-carboxamide], the IC50 was determined as 46.1 ± 9.23 µM in the data set with SW480 cells and 24.8 ± 5.21 µM in the data set with A549 cells [1] (Homo sapiens, A549, 72 h).

Take `COc1cc(-c2nc3ccc(C(=O)NCC(C)C)cc3[nH]2)cc(OC)c1OC` [Compound 5b, N-Isobutyl-2-(3,4,5-trimethoxyphenyl)-1H-benzo[d]imidazole-6-carboxamide]: the concentration for half-maximal inhibition (IC50) with SW480 cells came to 18.8 ± 3.25 µM; in the data set on A549 cells [1] (Homo sapiens, A549, 72 h) it was 0.82 ± 0.2 µM.

On to `COc1cc(-c2nc3ccc(C(=O)NCc4ccccc4)cc3[nH]2)cc(OC)c1OC` [Compound 5c, N-Benzyl-2-(3,4,5-trimethoxyphenyl)-1H-benzo[d]imidazole-6-carboxamide], for which the IC50 with SW480 cells turned out to be 34.8 ± 5.37 µM; in the data set with A549 cells [1] (Homo sapiens, A549, 72 h), 16.3 ± 5.73 µM.

As to `COc1cc(-c2nc3ccc(C(=O)NCCc4ccccc4)cc3[nH]2)cc(OC)c1OC` [Compound 5d, N-Phenethyl-2-(3,4,5-trimethoxyphenyl)-1H-benzo[d]imidazole-6-carboxamide], the IC50 in the data set with SW480 cells stood at 18.2 ± 2.69 µM; in the data set with A549 cells [1] (Homo sapiens, A549, 72 h), 0.66 ± 0.13 µM.

For `COc1cc(-c2nc3ccc(C(=O)Nc4ccccc4)cc3[nH]2)cc(OC)c1OC` [Compound 5e, N-Phenyl-2-(3,4,5-trimethoxyphenyl)-1H-benzo[d]imidazole-6-carboxamide], in the data set with SW480 cells, the IC50 was 5.45 ± 0.67 µM and the “SI SW480” value stood at 2.1. In addition, the IC50 in the data set with A549 cells [1] (Homo sapiens, A549, 72 h) came out at 0.23 ± 0.05 µM. The “SI A549” value with A549 cells [1] amounted to 50.2.

Turning to `COc1cc(-c2nc3ccc(C(=O)Nc4ccccc4F)cc3[nH]2)cc(OC)c1OC` [Compound 5f, N-(2-Fluorophenyl)-2-(3,4,5-trimethoxyphenyl)-1H-benzo[d]imidazole-6-carboxamide], the IC50 in the data set on SW480 cells was determined as 6.38 ± 1.95 µM; in the data set on A549 cells [1] (Homo sapiens, A549, 72 h) it was 0.67 ± 0.15 µM. Besides, the “SI SW480” value in the data set on SW480 cells is listed as 1.7. Further, the “SI A549” value in the data set with A549 cells [1] is recorded as 15.8.

On to `COc1cc(-c2nc3ccc(C(=O)Nc4ccccc4Cl)cc3[nH]2)cc(OC)c1OC` [Compound 5g, N-(2-Chlorophenyl)-2-(3,4,5-trimethoxyphenyl)-1H-benzo[d]imidazole-6-carboxamide], for which the IC50 was determined as 49.1 ± 2.84 µM in the data set on SW480 cells and 17.3 ± 3.5 µM in the data set with A549 cells [1] (Homo sapiens, A549, 72 h).

For the compound `COc1cc(-c2nc3ccc(C(=O)Nc4cccc(Cl)c4)cc3[nH]2)cc(OC)c1OC` [Compound 5h, N-(3-Chlorophenyl)-2-(3,4,5-trimethoxyphenyl)-1H-benzo[d]imidazole-6-carboxamide], the IC50 in the data set on SW480 cells was 52.7 ± 2.96 µM; with A549 cells [1] (Homo sapiens, A549, 72 h) it was 27.5 ± 6.78 µM.

With `COc1cc(-c2nc3ccc(C(=O)Nc4ccc([N+](=O)[O-])cc4Cl)cc3[nH]2)cc(OC)c1OC` [Compound 5i, N-(2-Chloro-4-nitrophenyl)-2-(3,4,5-trimethoxyphenyl)-1H-benzo[d]imidazole-6-carboxamide], the IC50 in the data set with SW480 cells was determined as 20.2 ± 7.21 µM; in the data set with A549 cells [1] (Homo sapiens, A549, 72 h) it was 5.78 ± 4.85 µM.

In the case of `COc1cc(-c2nc3ccc(C(=O)Nc4ccc(Br)cc4)cc3[nH]2)cc(OC)c1OC` [Compound 5j, N-(4-Bromophenyl)-2-(3,4,5-trimethoxyphenyl)-1H-benzo[d]imidazole-6-carboxamide], the IC50 in the data set on SW480 cells came out at 15.2 ± 2.58 µM; in the data set on A549 cells [1] (Homo sapiens, A549, 72 h), 13.1 ± 1.27 µM.

As to `COc1cc(-c2nc3ccc(C(=O)Nc4cccc([N+](=O)[O-])c4)cc3[nH]2)cc(OC)c1OC` [Compound 5k, N-(3-Nitrophenyl)-2-(3,4,5-trimethoxyphenyl)-1H-benzo[d]imidazole-6-carboxamide], the IC50 with SW480 cells is 16.8 ± 1.41 µM; with A549 cells [1] (Homo sapiens, A549, 72 h) it was 14.4 ± 3.53 µM.

Take `COc1cc(-c2nc3ccc(C(=O)Nc4ccccc4C)cc3[nH]2)cc(OC)c1OC` [Compound 5l, N-(o-Tolyl)-2-(3,4,5-trimethoxyphenyl)-1H-benzo[d]imidazole-6-carboxamide]: the IC50 amounted to 9.31 ± 0.21 µM in the data set with SW480 cells and 0.92 ± 0.39 µM in the data set on A549 cells [1] (Homo sapiens, A549, 72 h).

In the case of `COc1cc(-c2nc3ccc(C(=O)Nc4ccc(C)cc4)cc3[nH]2)cc(OC)c1OC` [Compound 5m, N-(p-Tolyl)-2-(3,4,5-trimethoxyphenyl)-1H-benzo[d]imidazole-6-carboxamide], in the data set with SW480 cells, the IC50 came out at 13 ± 1.2 µM and the “SI SW480” value is listed as 1.2. In addition, the IC50 with A549 cells [1] (Homo sapiens, A549, 72 h) worked out at 0.52 ± 0.12 µM. For the same compound, the “SI A549” value with A549 cells [1] is 28.9.

Take `COc1cc(-c2nc3ccc(C(=O)Nc4ccc(C)cc4C)cc3[nH]2)cc(OC)c1OC` [Compound 5n, N-(2,4-Dimethylphenyl)-2-(3,4,5-trimethoxyphenyl)-1H-benzo[d]imidazole-6-carboxamide]: the IC50 in the data set with SW480 cells is 14.8 ± 1.63 µM; in the data set with A549 cells [1] (Homo sapiens, A549, 72 h) it was 1.38 ± 0.23 µM.

On to `COc1ccc(NC(=O)c2ccc3nc(-c4cc(OC)c(OC)c(OC)c4)[nH]c3c2)c(OC)c1` [Compound 5o, N-(2,4-Dimethoxyphenyl)-2-(3,4,5-trimethoxyphenyl)-1H-benzo[d]imidazole-6-carboxamide], for which, in the data set on A549 cells [2] (A549, 0.15 μM), the “total apoptosis rate (Q2 + Q3)” value turned out to be 15.2%; the “early apoptotic cells (Q3, annexin+/PI-)” value is 9.8%; the “late apoptotic cells (Q2, annexin+/PI+)” value came out at 5.4%. Besides, in the data set on A549 cells [2] (A549, 0.30 μM), the “total apoptosis rate (Q2 + Q3)” value is recorded as 74.3%; the “early apoptotic cells (Q3, annexin+/PI-)” value worked out at 34.4%; the “late apoptotic cells (Q2, annexin+/PI+)” value came out at 39.9%. Also, in the data set with A549 cells [3] (A549, 0.15 μM), the “cell population in S phase” value is recorded as 43.58% and the “cell population in G0/G1 phase” value is listed as 46.44%. For the same compound, the “cell population in G2/M phase” value with A549 cells [3] (A549, 0.30 μM, control 13.24%) worked out at 4.53%. In the data set with A549 cells [3] (A549, 0.30 μM), the “cell population in S phase” value is given as 60.31% and the “cell population in G0/G1 phase” value came out at 35.16%. Also, in the data set with SW480 cells, the half-inhibitory concentration (IC50) came out at 3.68 ± 0.59 µM and the “SI SW480” value was 32.4. In addition, in the data set with SW480 cells (SW480 cells), the “fold stronger cytotoxic activity than cisplatin” value is listed as 4.1 fold and the “fold stronger cytotoxic activity than etoposide” value is 4.5 fold. Also, in the data set on A549 cells [1] (A549 cells), the “fold higher cytotoxic activity than cisplatin” value came out at 38.5 fold, the “fold higher cytotoxic activity than doxorubicin” value is reported as 3.1 fold and the “fold higher cytotoxic activity than etoposide” value came out at 62.9 fold. The IC50 in the data set on A549 cells [1] (Homo sapiens, A549, 72 h) turned out to be 0.15 ± 0.01 µM. Moreover, in the data set on A549 cells [1], the “SI A549” value was found to be 794.6.

On to `COc1cccc2c1C(=O)c1c(O)c3c(c(O)c1C2=O)C[C@@](O)(C(=O)CO)C[C@@H]3O[C@H]1C[C@H](N)[C@H](O)[C@H](C)O1` [Doxorubicin, reference compound], for which the 50% inhibitory concentration (IC50) was found to be 0.59 ± 0.07 µM with SW480 cells and 0.46 ± 0.02 µM with A549 cells [1] (Homo sapiens, A549, 72 h). The “SI SW480” value in the data set with SW480 cells turned out to be 0.7. Also, the “SI A549” value with A549 cells [1] is 0.8.

Take `COc1cc([C@@H]2c3cc4c(cc3[C@@H](O[C@@H]3O[C@@H]5CO[C@@H](C)O[C@H]5[C@H](O)[C@H]3O)[C@H]3COC(=O)[C@H]23)OCO4)cc(OC)c1O` [Etoposide, reference compound]: the IC50 with SW480 cells came to 16.6 ± 2.3 µM; with A549 cells [1] (Homo sapiens, A549, 72 h), 9.44 ± 1.98 µM.
